The text below walks through data of patent US12583849B2, “KCNT1 inhibitors and methods of use” (Praxis Precision Medicines, Inc., priority 2020, dated 2026).

The experiment concerns the target T1, KCNT1 (KNa1.1, Slack) (Homo sapiens, UniProt Q5JUK3).
T1 construct: expressed in transfected cells; host or cells: HEK-TREX (tetracycline-inducible cell line)
T1 sequence (Q5JUK3 1-1230): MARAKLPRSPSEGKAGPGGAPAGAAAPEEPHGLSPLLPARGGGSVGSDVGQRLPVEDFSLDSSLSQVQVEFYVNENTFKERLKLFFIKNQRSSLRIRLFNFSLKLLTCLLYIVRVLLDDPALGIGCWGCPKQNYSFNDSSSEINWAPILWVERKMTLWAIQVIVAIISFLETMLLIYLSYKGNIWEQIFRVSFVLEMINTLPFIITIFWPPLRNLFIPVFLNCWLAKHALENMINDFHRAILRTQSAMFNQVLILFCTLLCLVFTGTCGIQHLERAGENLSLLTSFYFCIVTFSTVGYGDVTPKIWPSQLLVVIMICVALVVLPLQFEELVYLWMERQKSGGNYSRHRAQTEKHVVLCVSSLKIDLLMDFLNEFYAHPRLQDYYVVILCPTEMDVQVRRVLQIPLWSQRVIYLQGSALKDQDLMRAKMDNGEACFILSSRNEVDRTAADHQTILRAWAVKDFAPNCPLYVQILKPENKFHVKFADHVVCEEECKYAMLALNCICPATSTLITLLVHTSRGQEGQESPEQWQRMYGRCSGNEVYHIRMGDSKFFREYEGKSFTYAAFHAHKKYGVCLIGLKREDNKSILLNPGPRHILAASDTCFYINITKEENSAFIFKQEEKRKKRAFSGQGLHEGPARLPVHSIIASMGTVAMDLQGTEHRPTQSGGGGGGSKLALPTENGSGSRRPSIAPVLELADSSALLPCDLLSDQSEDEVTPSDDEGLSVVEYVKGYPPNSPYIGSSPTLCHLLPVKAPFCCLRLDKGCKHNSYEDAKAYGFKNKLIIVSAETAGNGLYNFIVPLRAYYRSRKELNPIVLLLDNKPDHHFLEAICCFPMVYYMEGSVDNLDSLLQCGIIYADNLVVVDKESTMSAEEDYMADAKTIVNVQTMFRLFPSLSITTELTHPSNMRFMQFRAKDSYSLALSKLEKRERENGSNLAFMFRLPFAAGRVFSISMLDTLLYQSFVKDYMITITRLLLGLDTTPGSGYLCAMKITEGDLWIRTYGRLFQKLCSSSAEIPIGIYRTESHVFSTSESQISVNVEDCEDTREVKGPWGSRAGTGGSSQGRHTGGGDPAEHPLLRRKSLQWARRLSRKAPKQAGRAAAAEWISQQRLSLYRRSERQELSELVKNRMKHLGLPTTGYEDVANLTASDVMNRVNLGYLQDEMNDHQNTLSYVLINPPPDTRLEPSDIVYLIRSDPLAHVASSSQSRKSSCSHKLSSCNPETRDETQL
As to the kind of experiment: KCNT1-WT-Basal Patch Clamp Assay. The experiment is classed as cell-based. The following applies: tetracycline inducible cell line (HEK-TREX); SyncroPatch 384PE automated patch clamp, perforated patch mode, room temperature, step from -80 mV to 0 mV. An outline of the steps:
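Tetracycline-inducible HEK-TREX cells expressing human KCNT1, recorded by automated perforated patch clamp (10 μM escin) at room temperature, with 4 mM external K+ at pH 7.4. Mean current taken during a 100 ms step from −80 mV to 0 mV, averaged over 3 sweeps. IC50 from Hill fit of % inhibition; otherwise % inhibition at top concentration.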
For orientation: In patch-clamp work, channel activity is measured electrically.

With `COC1CCC(C(=O)N[C@@H](C)c2nc(-c3ccnc(C(F)(F)F)c3)no2)CC1` (stereo partly drawn) [Compound I-69, (S)-4-methoxy-N-(1-(3-(2-(trifluoromethyl)pyridin-4-yl)-1,2,4-oxadiazol-5-yl)ethyl)cyclohexane-1-carboxamide], the IC50 (commonly the concentration at which inhibition is half-maximal) is 1000 to 20000 nM. `C[C@H](NC(=O)c1ccc(S(C)(=O)=O)s1)c1nc(-c2ccnc(C3CC3)c2)no1` [Compound I-70, (S)—N-(1-(3-(2-cyclopropylpyridin-4-yl)-1,2,4-oxadiazol-5-yl)ethyl)-5-(methylsulfonyl)thiophene-2-carboxamide] registered a half-inhibitory concentration (IC50) of at most 1000 nM.

The compound `C[C@H](NC(=O)C1(C)CCCCC1)c1nc(-c2ccnc(C(F)(F)F)c2)no1` [Compound I-71, 1-methyl-N-[(1S)-1-[3-[2-(trifluoromethyl)-4-pyridyl]-1,2,4-oxadiazol-5-yl]ethyl]cyclohexanecarboxamide] displayed a half-maximal inhibitory concentration (IC50) of at most 1000 nM. `C[C@H](NC(=O)C12CC(C)(C1)C2)c1nc(-c2ccnc(C(F)(F)F)c2)no1` [Compound I-72, 3-methyl-N-[(1S)-1-[3-[2-(trifluoromethyl)-4-pyridyl]-1,2,4-oxadiazol-5-yl]ethyl]bicyclo[1.1.1]pentane-1-carboxamide] showed an IC50 of 1000 to 20000 nM. In the case of `CC(=O)N1CCC(C(=O)N[C@@H](C)c2nc(-c3ccnc(C(F)(F)F)c3)no2)CC1` [Compound I-73, 1-acetyl-N-[(1S)-1-[3-[2-(trifluoromethyl)-4-pyridyl]-1,2,4-oxadiazol-5-yl]ethyl]piperidine-4-carboxamide], the IC50 was at least 20000 nM. `COc1ccccc1C(=O)N[C@@H](C)c1nc(-c2ccnc(C3CC3)c2)no1` [Compound I-75, N-[(1S)-1-[3-(2-cyclopropyl-4-pyridyl)-1,2,4-oxadiazol-5-yl]ethyl]-2-methoxy-benzamide] returned an IC50 of at most 1000 nM. In turn, `C[C@H](NC(=O)C1CC2(CCC2)C1)c1nc(-c2ccnc(C(F)(F)F)c2)no1` [Compound I-76, N-[(1S)-1-[3-[2-(trifluoromethyl)-4-pyridyl]-1,2,4-oxadiazol-5-yl]ethyl]spiro[3.3]heptane-2-carboxamide] had an IC50 of at most 1000 nM. The compound `COc1cccc(C(=O)N[C@@H](C)c2nc(-c3ccnc(C4CC4)c3)no2)c1` [Compound I-79] came in with an IC50 of at most 1000 nM. For the compound `C[C@H](NC(=O)c1ccccc1Cl)c1nc(-c2ccnc(C3CC3)c2)no1` [Compound I-80, 2-chloro-N-[(1S)-1-[3-(2-cyclopropyl-4-pyridyl)-1,2,4-oxadiazol-5-yl]ethyl]benzamide], the IC50 is at most 1000 nM. The compound `Cc1cccc(C(=O)N[C@@H](C)c2nc(-c3ccnc(C4CC4)c3)no2)c1` [Compound I-81, N-[(1S)-1-[3-(2-cyclopropyl-4-pyridyl)-1,2,4-oxadiazol-5-yl]ethyl]-3-methyl-benzamide] came in with a half-maximal inhibitory concentration (IC50) of at most 1000 nM.

Turning to `C[C@H](NC(=O)C1CCCC12CC2)c1nc(-c2ccnc(C(F)(F)F)c2)no1` (stereo partly drawn) [Compound I-82, N-[(1S)-1-[3-[2-(trifluoromethyl)-4-pyridyl]-1,2,4-oxadiazol-5-yl]ethyl]spiro[2.4]heptane-7-carboxamide], the IC50 was at most 1000 nM. `Cc1ccccc1C(=O)N[C@@H](C)c1nc(-c2ccnc(C3CC3)c2)no1` [Compound I-83, N-[(1S)-1-[3-(2-cyclopropyl-4-pyridyl)-1,2,4-oxadiazol-5-yl]ethyl]-2-methyl-benzamide] yielded an IC50 of at most 1000 nM.

`C[C@H](NC(=O)[C@H]1CC[C@@H](C)CC1)c1nc(-c2ccnc(C3CC3)c2)no1` [Compound I-84, (1S,4R)—N—((S)-1-(3-(2-cyclopropylpyridin-4-yl)-1,2,4-oxadiazol-5-yl)ethyl)-4-methylcyclohexane-1-carboxamide]: the IC50 was at most 1000 nM.

`Cc1ccc(C(=O)N[C@@H](C)c2nc(-c3ccnc(C4CC4)c3)no2)cc1` [Compound I-87, (S)—N-(1-(3-(2-cyclopropylpyridin-4-yl)-1,2,4-oxadiazol-5-yl)ethyl)-4-methylbenzamide] yielded an IC50 of at most 1000 nM.

As to `C[C@H](NC(=O)c1cccc(C#N)c1)c1nc(-c2ccnc(C3CC3)c2)no1` [Compound I-88, (S)-3-cyano-N-(1-(3-(2-cyclopropylpyridin-4-yl)-1,2,4-oxadiazol-5-yl)ethyl)benzamide], the IC50 was at most 1000 nM. On to `C[C@H](NC(=O)c1cccc(F)c1)c1nc(-c2ccnc(C3CC3)c2)no1` [Compound I-89, (S)—N-(1-(3-(2-cyclopropylpyridin-4-yl)-1,2,4-oxadiazol-5-yl)ethyl)-3-fluorobenzamide], for which the IC50 is at most 1000 nM. Compound `C[C@H](NC(=O)c1cccc(C(=O)N(C)C)c1)c1nc(-c2ccnc(C3CC3)c2)no1` [Compound I-90, (S)—N1-(1-(3-(2-cyclopropylpyridin-4-yl)-1,2,4-oxadiazol-5-yl)ethyl)-N3,N3-dimethylisophthalamide] came in with an IC50 of 1000 to 20000 nM.

`C[C@H](NC(=O)c1cccc(C(N)=O)c1)c1nc(-c2ccnc(C3CC3)c2)no1` [Compound I-91, (S)—N-(1-(3-(2-cyclopropylpyridin-4-yl)-1,2,4-oxadiazol-5-yl)ethyl) isophthalamide] gave an IC50 of 1000 to 20000 nM. In turn, `C[C@H](NC(=O)c1cccc(S(C)(=O)=O)c1)c1nc(-c2ccnc(C3CC3)c2)no1` [Compound I-92, (S)—N-(1-(3-(2-cyclopropylpyridin-4-yl)-1,2,4-oxadiazol-5-yl)ethyl)-3-(methylsulfonyl)benzamide] had an IC50 of at most 1000 nM. `CCS(=O)(=O)c1ccc(C(=O)N[C@@H](C)c2nc(-c3ccnc(C4CC4)c3)no2)s1` [Compound I-93, (S)—N-(1-(3-(2-cyclopropylpyridin-4-yl)-1,2,4-oxadiazol-5-yl)ethyl)-5-(ethylsulfonyl)thiophene-2-carboxamide] showed an IC50 of at most 1000 nM. Turning to `C[C@H](NC(=O)c1ccc(Cl)cc1Cl)c1nc(-c2ccnc(C3CC3)c2)no1` [Compound I-94, (S)-2,4-dichloro-N-(1-(3-(2-cyclopropylpyridin-4-yl)-1,2,4-oxadiazol-5-yl)ethyl)benzamide], the IC50 is at most 1000 nM. The compound `C[C@H](NC(=O)c1cccc(C(F)(F)F)c1)c1nc(-c2ccnc(C3CC3)c2)no1` [Compound I-95, (S)—N-(1-(3-(2-cyclopropylpyridin-4-yl)-1,2,4-oxadiazol-5-yl)ethyl)-3-(trifluoromethyl)benzamide] came in with an IC50 of at most 1000 nM. `C[C@H](NC(=O)c1ccnc(C(F)(F)F)c1)c1nc(-c2ccnc(C3CC3)c2)no1` [Compound I-96, (S)—N-(1-(3-(2-cyclopropylpyridin-4-yl)-1,2,4-oxadiazol-5-yl)ethyl)-2-(trifluoromethyl)isonicotinamide] returned an IC50 of at most 1000 nM. For `C[C@H](NC(=O)c1ccc(S(=O)(=O)C2CC2)s1)c1nc(-c2ccnc(C3CC3)c2)no1` [Compound I-97, (S)—N-(1-(3-(2-cyclopropylpyridin-4-yl)-1,2,4-oxadiazol-5-yl)ethyl)-5-(cyclopropylsulfonyl)thiophene-2-carboxamide], the IC50 was at most 1000 nM. To `C[C@H](NC(=O)C1CC2(CCC2)C1)c1nc(-c2ccnc(C3CC3)c2)no1` [Compound I-98, (S)—N-(1-(3-(2-cyclopropylpyridin-4-yl)-1,2,4-oxadiazol-5-yl)ethyl) spiro[3.3]heptane-2-carboxamide] belongs at most 1000 nM.

Consider `C[C@H](NC(=O)c1ccnc(C2CC2)c1)c1nc(-c2ccnc(C3CC3)c2)no1` [Compound I-99, (S)-2-cyclopropyl-N-(1-(3-(2-cyclopropylpyridin-4-yl)-1,2,4-oxadiazol-5-yl)ethyl)isonicotinamide], for which the half-maximal inhibitory concentration (IC50) was at most 1000 nM.

Consider `C[C@H](NC(=O)c1cccc(Cl)c1)c1nc(-c2ccnc(C3CCC3)c2)no1` [Compound I-100, (S)-3-chloro-N-(1-(3-(2-cyclobutylpyridin-4-yl)-1,2,4-oxadiazol-5-yl)ethyl) benzamide], for which the concentration for half-maximal inhibition (IC50) was at most 1000 nM.

For `Cc1cc(C(=O)N[C@@H](C)c2nc(-c3ccnc(C4CC4)c3)no2)ccn1` [Compound I-101, (S)—N-(1-(3-(2-cyclopropylpyridin-4-yl)-1,2,4-oxadiazol-5-yl)ethyl)-2-methyl isonicotinamide], the IC50 was at most 1000 nM.
